From ChEMBL document CHEMBL5370535, “Thiazolyl hydrazineylidenyl indolones as unique potential multitargeting broad-spectrum antimicrobial agents” (Eur J Med Chem, 2023)
≈ marks a conversion by molar mass, not a printed value.

Legend:
Type in all cases: functional
Staphylococcus aureus [1] = test: Antibacterial activity against methicillin-resistant Staphylococcus aureus assessed as bacterial growth inhibition incubated for 24 hrs by CLSI based two serial dilution assay
Enterococcus faecalis = test: Antibacterial activity against Enterococcus faecalis assessed as bacterial growth inhibition incubated for 24 hrs by CLSI based two serial dilution assay
Staphylococcus aureus [2] = test: Antibacterial activity against Staphylococcus aureus assessed as bacterial growth inhibition incubated for 24 hrs by CLSI based two serial dilution assay
Staphylococcus aureus [3] = test: Antibacterial activity against Staphylococcus aureus 25923 assessed as bacterial growth inhibition incubated for 24 hrs by CLSI based two serial dilution assay
Staphylococcus aureus [4] = test: Antibacterial activity against Staphylococcus aureus 29213 assessed as bacterial growth inhibition incubated for 24 hrs by CLSI based two serial dilution assay
Klebsiella pneumoniae = test: Antibacterial activity against Klebsiella pneumoniae assessed as bacterial growth inhibition incubated for 24 hrs by CLSI based two serial dilution assay
Escherichia coli [5] = test: Antibacterial activity against Escherichia coli assessed as bacterial growth inhibition incubated for 24 hrs by CLSI based two serial dilution assay
Escherichia coli [6] = test: Antibacterial activity against Escherichia coli 25922 assessed as bacterial growth inhibition incubated for 24 hrs by CLSI based two serial dilution assay
Pseudomonas aeruginosa [7] = test: Antibacterial activity against Pseudomonas aeruginosa assessed as bacterial growth inhibition incubated for 24 hrs by CLSI based two serial dilution assay
Pseudomonas aeruginosa [8] = test: Antibacterial activity against Pseudomonas aeruginosa ATCC 27853 assessed as bacterial growth inhibition incubated for 24 hrs by CLSI based two serial dilution assay
Acinetobacter baumannii = test: Antibacterial activity against Acinetobacter baumannii assessed as bacterial growth inhibition incubated for 24 hrs by CLSI based two serial dilution assay
Candida albicans [9] = test: Antifungal activity against Candida albicans assessed as inhibition of fungal growth incubated for 24 hrs by CLSI based two serial dilution assay
Candida albicans [10] = test: Antifungal activity against Candida albicans ATCC 90023 assessed as inhibition of fungal growth incubated for 24 hrs by CLSI based two serial dilution assay
Candida tropicalis = test: Antifungal activity against Candida tropicalis assessed as inhibition of fungal growth incubated for 24 hrs by CLSI based two serial dilution assay
Candida parapsilosis = test: Antifungal activity against Candida parapsilosis ATCC 22019 assessed as inhibition of fungal growth incubated for 24 hrs by CLSI based two serial dilution assay; conditions: Lodderomyces parapsilosis
Aspergillus fumigatus = test: Antifungal activity against Aspergillus fumigatus assessed as inhibition of fungal growth incubated for 24 hrs by CLSI based two serial dilution assay

| SMILES | MIC (Staphylococcus aureus [1]) [µM] | MIC (Enterococcus faecalis) [µM] | MIC (Staphylococcus aureus [2]) [µM] | MIC (Staphylococcus aureus [3]) [µM] | MIC (Staphylococcus aureus [4]) [µM] | MIC (Klebsiella pneumoniae) [µM] | MIC (Escherichia coli [5]) [µM] | MIC (Escherichia coli [6]) [µM] | MIC (Pseudomonas aeruginosa [7]) [µM] | MIC (Pseudomonas aeruginosa [8]) [µM] | MIC (Acinetobacter baumannii) [µM] | MIC (Candida albicans [9]) [µM] | MIC (Candida albicans [10]) [µM] | MIC (Candida tropicalis) [µM] | MIC (Candida parapsilosis) [µM] | MIC (Aspergillus fumigatus) [µM] |
| --- | --- | --- | --- | --- | --- | --- | --- | --- | --- | --- | --- | --- | --- | --- | --- | --- |
| C=CCN1C(=O)/C(=N\Nc2nccs2)c2ccccc21 | 512 (≈ 146 µg/mL) | 64 (≈ 18.2 µg/mL) | 64 (≈ 18.2 µg/mL) | 128 (≈ 36.4 µg/mL) | 128 (≈ 36.4 µg/mL) | 256 (≈ 72.8 µg/mL) | 64 (≈ 18.2 µg/mL) | 512 (≈ 146 µg/mL) | 512 (≈ 146 µg/mL) | 16 (≈ 4.55 µg/mL) | 512 (≈ 146 µg/mL) | 256 (≈ 72.8 µg/mL) | 512 (≈ 146 µg/mL) | 32 (≈ 9.1 µg/mL) | 128 (≈ 36.4 µg/mL) | 4 (≈ 1.14 µg/mL) |
| CCCCN1C(=O)/C(=N\Nc2nccs2)c2cc(Br)cc(Br)c21 | 1 (≈ 0.458 µg/mL) | 0.5 (≈ 0.229 µg/mL) | 16 (≈ 7.33 µg/mL) | 0.5 (≈ 0.229 µg/mL) | 16 (≈ 7.33 µg/mL) | 0.5 (≈ 0.229 µg/mL) | 1 (≈ 0.458 µg/mL) | 1 (≈ 0.458 µg/mL) | 1 (≈ 0.458 µg/mL) | 512 (≈ 235 µg/mL) | 512 (≈ 235 µg/mL) | 0.5 (≈ 0.229 µg/mL) | 1 (≈ 0.458 µg/mL) | 1 (≈ 0.458 µg/mL) | 128 (≈ 58.6 µg/mL) | 512 (≈ 235 µg/mL) |
| OC(Cn1cncn1)(Cn1cncn1)c1ccc(F)cc1F [FLUCONAZOLE] |  |  |  |  |  |  |  |  |  |  |  | 4 (≈ 1.23 µg/mL) | 2 (≈ 0.613 µg/mL) | 8 (≈ 2.45 µg/mL) | 4 (≈ 1.23 µg/mL) | 256 (≈ 78.4 µg/mL) |
| CCCCN1C(=O)/C(=N\Nc2nc(C)c(C(=O)OCC)s2)c2ccccc21 | 128 (≈ 49.5 µg/mL) | 256 (≈ 98.9 µg/mL) | 64 (≈ 24.7 µg/mL) | 512 (≈ 198 µg/mL) | 64 (≈ 24.7 µg/mL) | 256 (≈ 98.9 µg/mL) | 256 (≈ 98.9 µg/mL) | 128 (≈ 49.5 µg/mL) | 1 (≈ 0.386 µg/mL) | 256 (≈ 98.9 µg/mL) | 128 (≈ 49.5 µg/mL) | 512 (≈ 198 µg/mL) | 512 (≈ 198 µg/mL) | 128 (≈ 49.5 µg/mL) | 256 (≈ 98.9 µg/mL) | 128 (≈ 49.5 µg/mL) |
| CCCCCN1C(=O)/C(=N\Nc2nccs2)c2ccccc21 | 4 (≈ 1.26 µg/mL) | 4 (≈ 1.26 µg/mL) | 4 (≈ 1.26 µg/mL) | 16 (≈ 5.03 µg/mL) | 4 (≈ 1.26 µg/mL) | 4 (≈ 1.26 µg/mL) | 16 (≈ 5.03 µg/mL) | 4 (≈ 1.26 µg/mL) | 2 (≈ 0.629 µg/mL) | 16 (≈ 5.03 µg/mL) | 4 (≈ 1.26 µg/mL) | 4 (≈ 1.26 µg/mL) | 4 (≈ 1.26 µg/mL) | 16 (≈ 5.03 µg/mL) | 4 (≈ 1.26 µg/mL) | 4 (≈ 1.26 µg/mL) |
| O=C1/C(=N\Nc2nccs2)c2ccccc2N1Cc1ccc(Cl)cc1Cl | 128 (≈ 51.6 µg/mL) | 64 (≈ 25.8 µg/mL) | 4 (≈ 1.61 µg/mL) | 4 (≈ 1.61 µg/mL) | 2 (≈ 0.807 µg/mL) | 128 (≈ 51.6 µg/mL) | 64 (≈ 25.8 µg/mL) | 128 (≈ 51.6 µg/mL) | 64 (≈ 25.8 µg/mL) | 64 (≈ 25.8 µg/mL) | 64 (≈ 25.8 µg/mL) | 32 (≈ 12.9 µg/mL) | 16 (≈ 6.45 µg/mL) | 64 (≈ 25.8 µg/mL) | 32 (≈ 12.9 µg/mL) | 16 (≈ 6.45 µg/mL) |
| CCCCN1C(=O)/C(=N\Nc2nccs2)c2c(Cl)cc(Cl)cc21 | 1 (≈ 0.369 µg/mL) | 4 (≈ 1.48 µg/mL) | 2 (≈ 0.739 µg/mL) | 1 (≈ 0.369 µg/mL) | 2 (≈ 0.739 µg/mL) | 1 (≈ 0.369 µg/mL) | 32 (≈ 11.8 µg/mL) | 1 (≈ 0.369 µg/mL) | 2 (≈ 0.739 µg/mL) | 512 (≈ 189 µg/mL) | 512 (≈ 189 µg/mL) | 0.5 (≈ 0.185 µg/mL) | 2 (≈ 0.739 µg/mL) | 1 (≈ 0.369 µg/mL) | 256 (≈ 94.5 µg/mL) | 128 (≈ 47.3 µg/mL) |
| C#CCN1C(=O)/C(=N\Nc2nccs2)c2ccccc21 | 256 (≈ 72.3 µg/mL) | 256 (≈ 72.3 µg/mL) | 256 (≈ 72.3 µg/mL) | 512 (≈ 145 µg/mL) | 512 (≈ 145 µg/mL) | 512 (≈ 145 µg/mL) | 512 (≈ 145 µg/mL) | 512 (≈ 145 µg/mL) | 256 (≈ 72.3 µg/mL) | 512 (≈ 145 µg/mL) | 512 (≈ 145 µg/mL) | 256 (≈ 72.3 µg/mL) | 256 (≈ 72.3 µg/mL) | 256 (≈ 72.3 µg/mL) | 64 (≈ 18.1 µg/mL) | 64 (≈ 18.1 µg/mL) |
| O=C(N[C@H](CO)[C@H](O)c1ccc([N+](=O)[O-])cc1)C(Cl)Cl [CHLORAMPHENICOL] | 16 (≈ 5.17 µg/mL) | 8 (≈ 2.59 µg/mL) | 8 (≈ 2.59 µg/mL) | 8 (≈ 2.59 µg/mL) | 4 (≈ 1.29 µg/mL) | 8 (≈ 2.59 µg/mL) | 32 (≈ 10.3 µg/mL) | 16 (≈ 5.17 µg/mL) | 32 (≈ 10.3 µg/mL) | 8 (≈ 2.59 µg/mL) | 16 (≈ 5.17 µg/mL) |  |  |  |  |  |
| C=CC1=C(C(=O)O)N2C(=O)[C@@H](NC(=O)/C(=N\O)c3csc(N)n3)[C@H]2SC1 [CEFDINIR] | 1 (≈ 0.395 µg/mL) | 2 (≈ 0.791 µg/mL) | 1 (≈ 0.395 µg/mL) | 0.5 (≈ 0.198 µg/mL) | 0.5 (≈ 0.198 µg/mL) | 0.5 (≈ 0.198 µg/mL) | 1 (≈ 0.395 µg/mL) | 2 (≈ 0.791 µg/mL) | 0.5 (≈ 0.198 µg/mL) | 1 (≈ 0.395 µg/mL) | 2 (≈ 0.791 µg/mL) |  |  |  |  |  |
